Measured values taken from patent US11234992B2, “Methods and therapies for treating atherosclerosis and/or hyperlipidemia using oligosaccharides” (The Regents of the University of California, priority 2018, dated 2022).
In brackets after ≈: the same amount, converted by molar mass. Entries after “also recorded” stand apart in the source; their conditions may differ.

Key:
IL-6 = test: Attenuation of IL-6 cytokine expression (IC50); assay type: cell-based
Procedure: (§1) In particular, pooled HMOs (˜100 μg/mL) attenuated LPS-induced M1 polarization and importantly its subsequent cytokine expression (IL-1β, IL-6, etc. mRNA and protein levels) in a mouse macrophage cell line (RAW246) and in primary bone marrow derived macrophages (BMDM). […] Moreover, the attenuation effects remain when cells are stimulated with LipidA instead of LPS, excluding carbohydrate-carbohydrate interactions between LPS and HMOs above the cell surface.

[1] = system: LPS-activated Thp-1 cells (human cell line); test: Cytokine expression in LPS-activated Thp-1 cells; assay type: cell-based
[2] = system: primary bone marrow derived macrophages (BMDM); test: LPS-induced M1 polarization and cytokine expression in primary bone marrow derived macrophages; assay type: cell-based; settings: primary mouse cells; preliminary results
Procedure: as §1
(§2) Here, the aim is to test whether the results translate to in vivo efficacy in a short-term and a long-term disease model of chronic inflammation. Rheumatoid arthritis (RA) is an inflammatory disorder that affects approximately 1% of the adult population worldwide. It is characterized by systemic and local inflammation that leads to cartilage and bone destruction. Collagen antibody-induced arthritis (CAIA) is a simple RA mouse model that can be used to address questions of pathogenic mechanisms and to screen candidate therapeutic agents. Arthritis is induced by the systemic administration of a cocktail of monoclonal antibodies that target various regions of collagen type II, which is one of the major constituents of articular cartilage matrix proteins, together with LPS. […]

[3] = system: mouse macrophage cell line (RAW246); test: LPS-induced M1 polarization and cytokine expression in mouse macrophage cell line; assay type: cell-based; settings: preliminary results
Procedure: as §1, §2

MAPK pathway = test: Downstream signalling in BMDM, MAPK pathway; assay type: cell-based, mouse; settings: in the absence and presence of LPS
Procedure: as §1
To elucidate the receptor, signaling pathway and downstream transcription regulated by 3′SL in BMDM, a three-prong approach is utilized: (a) Whole Transcriptome Shotgun Sequencing (WTSS) is used to identify differentially regulated genes. […] In both approaches, naive BMDM is compared with 3′SL-treated BMDM as well LPS-stimulated BMDM and LPS-treated BMDM co-treated with 3′SL; and (c) A 3′SL affinity matrix is generated to run macrophage plasma membrane and isolate 3′SL binding proteins. Proteins are eluted from the matrix using different salt gradients and analyzed by silvers staining. Relevant elution fraction and individual protein bands are isolated and prepared for mass-spectrometry analysis. The above three-way approach allows for the identification of the receptor, signaling pathway and downstream transcription that is regulated by 3′SL. […]

IL-1β = test: Attenuation of IL-1β cytokine expression (IC50); assay type: cell-based; settings: cell type not given
Procedure: as §1

[4] = system: mice on a high fat diet (HFD); test: In vivo atherosclerosis/hyperlipidemia mouse model on high fat diet; settings: for inflammation in the liver, adipose tissue and arterial vessel wall / systemic secretion of pro-inflammatory cytokines like IL-1β and IL-6: in vitro and in vivo studies
Procedure: FIG. 1 provides a diagram of a mouse model used to test 3′SL effects on atherosclerosis. In particular, the mice are fed a high fat diet for two weeks prior to treatment in order to promote atherosclerosis in the mice. Treatment begins at the end of the second week with 3′SL or vehicle, whereby 3′SL or vehicle are administered to the mice twice daily at a dose of 90 mg/gavage. After 6 weeks of treatment, the mice are sacrificed and atherosclerosis lesions and plaques are assessed.
The complex pathology of atherosclerosis is characterized by the accumulation of lipids, inflammatory cells, and fibrous elements in large- and medium-sized arteries. According to the “response-to-retention” model, focal infiltration and retention of apolipoprotein B (apoB)-containing lipoproteins, such as low-density lipoproteins (LDLs), lipoprotein (a), and triglyceride-rich remnant particles (TRLs), in the subendothelial matrix of the tunica intima of arteries at atherosclerosis-prone sites initiates atherogenesis. Subsequent oxidation, lipolysis, proteolysis, and further aggregation of trapped LDL particles contribute to a chronic inflammatory response characterized by monocyte and T cell migration into the intima. Monocytes entering the plaque differentiate into macrophages and the expression of scavenger receptors result in internalization of modified lipoprotein particles. Lesion macrophages proliferate, accumulate massive amounts of cholesterol, and become lipid droplet-loaded “foam cells,” resulting in their retention in the lesion. Atherosclerosis is further characterized by the accumulation of M1-like macrophages and secretion of characteristic cytokines and chemokines. Priming of macrophages is sufficient to promote increased macrophage infiltration and inflammation in aorta, exacerbating atherosclerosis. […] Therefore, we will use Ldlr^−/− mice with a hypercholesterolemic background to study atherosclerosis development, which has several advantages: (1) cholesterol in Ldlr^−/− mice is mainly restricted to LDL particles resembling the situation in humans; (2) because of the minor importance of Ldlr in bone marrow derived cells related to atherosclerosis, the Ldlr^−/− mice are a very suitable model to study the role of candidate genes in these cells; (3) initiation of atherosclerotic plaque development can be highly controlled, as atherosclerosis will develop only upon feeding a high-fat/high-cholesterol diet.
Atherogenesis is determined by “en face” preparation of the entire aorta and Sudan IV staining to determine lipid infiltration as a measure for lesion surface as described in Gordts et al. (Arterioscler Thromb Vasc Biol. 29:1258-64 (2009)). In addition, the heart is isolated for sectioning of the aortic root to determine aortic root lesion area and qualitative assessment of the plaque phenotype. Aortic root cross-sectional atherosclerosis is measured by cutting 10 μm paraffin sections starting at the aortic valve plane and covering 1,000 μm in 100-μm increments. Two approaches are used to assess if 3′SL administration affects plaque stability and inflammatory cell composition in atherosclerotic plaques. Sections are immunostained using various antibodies to identify smooth muscle cells and macrophages and apoB content as well as the presence of oxidation-specific antibodies reflective of OxLDL. The extracellular content is visualized via staining using Oil red O (lipids), Hematoxylin and Eosin (necrotic core), Movat Pentachrome (proteoglycans), Masson-Goldner (collagen) and Verhoeffs van Gieson (elastin) staining protocols. As a measurement of the clinically relevant plaque vulnerability/stability in advanced lesions, fibrous cap thickness is determined by comparing serial sections each stained for smooth muscle cells and collagens, and the extent of necrosis will be quantified using imaging techniques as described in Gordts P L et al. (Cell Metabolism 20:813-26 (2014)). […]

[5] = summary statement, lipid metabolism

SMILES | IC50 (IL-6; cell type not given) [mg/L] | cytokine expression ([1]; LPS-activated Thp-1 cells) | LPS-induced M1 polarization and subsequent cytokine expression (IL-1b, IL-6, etc. mRNA and protein levels) ([1]; human cell line, preliminary results) | LPS-induced M1 polarization and subsequent cytokine expression (IL-1b, IL-6, etc. mRNA and protein levels) [2] | LPS-induced M1 polarization and subsequent cytokine expression (IL-1b, IL-6, etc. mRNA and protein levels) [3] | down-stream activation of the MAPK pathway (MAPK pathway) | IC50 (IL-1β) [mg/L] | plasma triglycerides (TG) levels ([4]; mice on high fat diet, 3′SL twice daily 90 mg/gavage for 6 weeks vs vehicle, FIG. 2A) | cholesterol levels ([4]; mice on high fat diet, 3′SL twice daily 90 mg/gavage for 6 weeks vs vehicle, FIG. 2B) | lesion area of atherosclerotic lesions (En Face) ([4]; mice on high fat diet, 3′SL twice daily 90 mg/gavage for 6 weeks vs vehicle, FIG. 3A) | aortic plaque size ([4]; mice on high fat diet, 3′SL twice daily 90 mg/gavage for 6 weeks vs vehicle, FIG. 3B) | inflammation in the liver, adipose tissue and arterial vessel wall ([4]; summary statement) | systemic secretion of pro-inflammatory cytokines like IL-1β and IL-6 ([4]; summary statement) | lipase activity [4, 5] | postprandial lipid clearance [4, 5] | therapeutic effect (IL-6; test not specified, stated directly after the 3′SL cytokine IC50 values)
CC(=O)NC1C(O)CC(OC2C(O)C(CO)OC(OC(C(O)CO)C(O)C(O)C=O)C2O)(C(=O)O)OC1C(O)C(O)CO (stereo not drawn) [3′SL, 3′-sialyllactose] | ~16.5 (≈ 26 µM) | effectively reduced | attenuates | attenuates | attenuates | regulate down-stream activation | ~44.4 (≈ 70.1 µM) | lower plasma triglyceride levels; also recorded: significant decrease | lower cholesterol levels; also recorded: significant decrease | smaller lesion areas; also recorded: significantly reduced in size | smaller sized plaques; also recorded: significantly reduced | attenuate | suppresses | promoting | promoting | –
CC(=O)N[C@H]1[C@H]([C@H](O)[C@H](O)CO)O[C@@](OC[C@H]2O[C@@H](O[C@H]3[C@H](O)[C@@H](O)[C@H](O)O[C@@H]3CO)[C@H](O)[C@@H](O)[C@H]2O)(C(=O)O)C[C@@H]1O [6′SL, 6′-sialyllactose] | – | – | – | – | – | – | – | – | – | – | – | attenuate | suppresses | – | – | therapeutic effect
